Patent US12226384B2, “Peramivir solution type inhalant and preparation method therefor” (priority 2019, dated 2025)
Read-outs that look alike come from different tables or passages of the source.

Key:
[1] = Equilibrium solubility of peramivir in saline solutions of different pH; assay type: physicochemical; parameters: unit not given here; settings: 25° C.
Experimental: An excess amount of bulk peramivir was drawn and placed into a 25 ml volumetric flask, and 0.7% salt solution was applied to bring the volume to scale; the diluted solution was placed on a shaker and shaken for 24 h (25° C., 75 rpm), and then dilute hydrochloric acid (5%, V/V) was applied to regulate the pH to 4, 4.5, 5.0, and 5.5, respectively; the pH-regulated solutions were placed for another 48 h, and then filtered with a 0.45 μm filter membrane; the filtrates were diluted 250-fold with deionized water; the peramivir contents in the samples were determined by the HPLC method in peramivir standard.

[2] = at respective timing
[3] = cited from earlier work

Which “Equilibrium Solubility of Peramivir in Saline Solutions” value (from here on “Equilibrium Solubility of Peramivir”) ([1]; pH = 4.0, 0.7% salt solution) does the source give for `CCC(CC)[C@H](NC(C)=O)[C@@H]1[C@H](O)[C@@H](C(=O)O)C[C@H]1NC(=N)N` [Peramivir, (−)-(1S, 2S, 3R, 4R)-2-hydroxy-3-[(1S)-1-acetamido-2-ethyl]butyl-4-guanidinocyclopenta-1-carbo xylic acid] here?
The value was 33.93 ± 0.51.

What about the “Equilibrium Solubility of Peramivir” value ([1]; pH = 4.5, 0.7% salt solution) of the same compound?
Its value is 26.53 ± 0.14.

And the “Equilibrium Solubility of Peramivir” value ([1]; pH = 5.0, 0.7% salt solution)?
Its value is 22.84 ± 0.39.

What about the “Equilibrium Solubility of Peramivir” value ([1]; pH = 5.5, 0.7% salt solution) of the same compound?
Its value is 22.04 ± 0.21.

What about the “Equilibrium Solubility of Peramivir” value ([1]; pH was not regulated with 0.7% salt solution (pH = 6.86)) of the same compound?
The value was 21.48 ± 0.31.

And the “lung tissue concentration, aerosol inhalation relative to intravenous administration” value ([2]; aerosol 10 mg/kg vs intravenous 10 mg/kg)?
The value was 2.02˜41.58 times.

And the “lung tissue concentration, aerosol inhalation relative to intravenous administration” value ([2]; aerosol low dose 2.5 mg/kg vs intravenous 10 mg/kg)?
Its value is 1.07˜4.58 times.

What about the “lung tissue concentration, aerosol inhalation relative to intravenous administration” value ([2]; aerosol medium dose 5 mg/kg vs intravenous 10 mg/kg) of the same compound?
Its value is 1.58˜5.31 times.

What about the “stability of peramivir APIs” value ([3]; 48 h at 100° C.) of the same compound?
The value was “stable”.

What about the “stability of peramivir APIs” value ([3]; acidic conditions) of the same compound?
Its value is “unstable”.

And the “stability of peramivir APIs” value ([3]; alkaline and neutral environments)?
Its value is “good stability”.

What about the “stability of peramivir APIs” value ([3]; light irradiation for 10 days) of the same compound?
Its value is “good stability”.
